Results reported in patent publication US9937183B2, “Antimicrobial compounds and methods of making and using the same” (priority 2013, dated 2018).
≈ marks a conversion by molar mass, not a printed value. Like-named read-outs stand apart in the source and are kept apart here.

Assays:
Format in all cases: cell-based
E. coli ATCC25922 = assay: MIC, microtiter-based liquid assay (CLSI); details: Escherichia coli
E. coli 1705878 = assay: MIC, microtiter-based liquid assay (CLSI); details: Escherichia coli, MDR strain
E. coli MG1655 parent = assay: MIC, microtiter-based liquid assay (CLSI); details: Escherichia coli
E. coli CAG12184 TolC = assay: MIC, microtiter-based liquid assay (CLSI); details: Escherichia coli, CAG12184TOLC
[1] = system: S. pneumoniae 02J1175 Mef(A); assay: MIC, microtiter-based liquid assay (CLSI); details: Streptococcus pneumoniae
S. aureus 11540 MRSA = assay: MIC, microtiter-based liquid assay (CLSI); details: Staphylococcus aureus
K. pneumoniae 1705949 = assay: MIC, microtiter-based liquid assay (CLSI); details: Klebsiella pneumoniae, MDR strain
K. pneumoniae 1705966 = assay: MIC, microtiter-based liquid assay (CLSI); details: Klebsiella pneumoniae
A. baumannii 1705936 = assay: MIC, microtiter-based liquid assay (CLSI); details: Acinetobacter baumannii, MDR strain
A. baumannii 1705943 = assay: MIC, microtiter-based liquid assay (CLSI); details: Acinetobacter baumannii
P. aeruginosa ATCC27853 = assay: MIC, microtiter-based liquid assay (CLSI); details: Pseudomonas aeruginosa
P. aeruginosa 1705886 = assay: MIC, microtiter-based liquid assay (CLSI); details: Pseudomonas aeruginosa
P. aeruginosa 1705904 = assay: MIC, microtiter-based liquid assay (CLSI); details: Pseudomonas aeruginosa, MDR strain
[2] = system: E. faecium A6349 VanA + LNZ-R; assay: MIC, microtiter-based liquid assay (CLSI); details: Enterococcus faecium
B. anthracis = assay: microbe, parasite or virus in culture; details: Bacillus anthracis; for MIC50: read-out: B. anthracis MIC50; for MIC90: read-out: B. anthracis MIC90; for MIC: read-out: B. anthracis MIC Range
Y. pestis = assay: microbe, parasite or virus in culture; details: Yersinia pestis; for MIC50: read-out: Y. pestis MIC50; for MIC90: read-out: Y. pestis MIC90; for MIC: read-out: Y. pestis MIC Range
B. mallei = assay: microbe, parasite or virus in culture; details: Burkholderia mallei; for MIC50: read-out: B. mallei MIC50; for MIC90: read-out: B. mallei MIC90; for MIC: read-out: B. mallei MIC Range
F. tularensis = assay: microbe, parasite or virus in culture; details: Francisella tularensis; for MIC50: read-out: F. tularensis MIC50; for MIC90: read-out: F. tularensis MIC90; for MIC: read-out: F. tularensis MIC Range
B. pseudomallei = assay: microbe, parasite or virus in culture; details: Burkholderia pseudomallei; for MIC50: read-out: B. pseudomallei MIC50; for MIC90: read-out: B. pseudomallei MIC90; for MIC: read-out: B. pseudomallei MIC Range
[3] = ATCC25922, read-out: MIC E. coli ATCC25922 + 50% HS
[4] = ATCC25922, read-out: MIC E. coli ATCC25922

Compound | MIC (E. coli ATCC25922; [3]) | MIC (E. coli ATCC25922; [4]) | MIC (E. coli 1705878) | MIC (E. coli MG1655 parent) | MIC (E. coli CAG12184 TolC) | MIC [1] | MIC (S. aureus 11540 MRSA) | MIC (K. pneumoniae 1705949) | MIC (K. pneumoniae 1705966) | MIC (A. baumannii 1705936) | MIC (A. baumannii 1705943) | MIC (P. aeruginosa ATCC27853) | MIC (P. aeruginosa 1705886) | MIC (P. aeruginosa 1705904) | MIC [2] | MIC50 (B. anthracis) | MIC90 (B. anthracis) | MIC (B. anthracis) | MIC50 (Y. pestis) | MIC90 (Y. pestis) | also measured
C[C@H](N)CCCc1cc(-c2cc3cn(-c4ccc([C@H](C)NCCCNC(=N)N)cc4)c(=O)nc3[nH]2)c(F)c(Cl)c1F [Compound 12] | 0.5 µg/mL | 0.125 µg/mL (≈ 0.214 µM) | 0.25 µg/mL (≈ 0.427 µM) | 0.25 µg/mL (≈ 0.427 µM) | 0.125 µg/mL (≈ 0.214 µM) | 0.125 µg/mL (≈ 0.214 µM) | 0.125 µg/mL (≈ 0.214 µM) | 0.25 µg/mL (≈ 0.427 µM) | 0.125 µg/mL (≈ 0.214 µM) | 2 µg/mL (≈ 3.42 µM) | 0.25 µg/mL (≈ 0.427 µM) | 4 µg/mL (≈ 6.84 µM) | 2 µg/mL (≈ 3.42 µM) | 4 µg/mL (≈ 6.84 µM) | 0.5 µg/mL | 0.06 µg/mL (≈ 0.103 µM) | 0.12 µg/mL (≈ 0.205 µM) | 0.03 to 0.25 µg/mL (≈ 0.0513 to 0.427 µM) | 0.12 µg/mL (≈ 0.205 µM) | 0.25 µg/mL (≈ 0.427 µM) | MIC (Y. pestis): 0.03 to 0.5 µg/mL (≈ 0.0513 to 0.855 µM); MIC50 (B. mallei): ≤ 0.03 µg/mL; MIC90 (B. mallei): 0.12 µg/mL (≈ 0.205 µM); MIC (B. mallei): 0.03 to 0.25 µg/mL (≈ 0.0513 to 0.427 µM); MIC50 (F. tularensis): ≤ 0.03 µg/mL; MIC90 (F. tularensis): ≤ 0.03 µg/mL; MIC (F. tularensis): 0.03 to 1 µg/mL (≈ 0.0513 to 1.71 µM); MIC50 (B. pseudomallei): 4 µg/mL (≈ 6.84 µM); MIC90 (B. pseudomallei): 8 µg/mL (≈ 13.7 µM); MIC (B. pseudomallei): 0.5 to 16 µg/mL (≈ 0.855 to 27.3 µM)
C[C@H](N)CCCc1cc(-c2cc3cn(-c4ccc(CNCCCNC(=N)N)cc4)c(=O)nc3[nH]2)c(F)c(Cl)c1F [Compound 13] | 0.25 µg/mL | 0.25 µg/mL (≈ 0.438 µM) | 0.25 µg/mL (≈ 0.438 µM) | 0.25 µg/mL (≈ 0.438 µM) | 0.25 µg/mL (≈ 0.438 µM) | 0.25 µg/mL (≈ 0.438 µM) | 0.25 µg/mL (≈ 0.438 µM) | 0.5 µg/mL (≈ 0.876 µM) | 0.25 µg/mL (≈ 0.438 µM) | 4 µg/mL (≈ 7 µM) | 0.25 µg/mL (≈ 0.438 µM) | 2 µg/mL (≈ 3.5 µM) | 2 µg/mL (≈ 3.5 µM) | 4 µg/mL (≈ 7 µM) | 0.5 µg/mL | ≤ 0.03 µg/mL | 0.12 µg/mL (≈ 0.21 µM) | 0.03 to 0.12 µg/mL (≈ 0.0525 to 0.21 µM) | 0.06 µg/mL (≈ 0.105 µM) | 0.12 µg/mL (≈ 0.21 µM) | MIC (Y. pestis): 0.03 to 0.25 µg/mL (≈ 0.0525 to 0.438 µM); MIC50 (B. mallei): ≤ 0.03 µg/mL; MIC90 (B. mallei): 0.06 µg/mL (≈ 0.105 µM); MIC (B. mallei): 0.03 to 0.25 µg/mL (≈ 0.0525 to 0.438 µM); MIC50 (F. tularensis): ≤ 0.03 µg/mL; MIC90 (F. tularensis): ≤ 0.03 µg/mL; MIC (F. tularensis): 0.03 to 0.5 µg/mL (≈ 0.0525 to 0.876 µM); MIC50 (B. pseudomallei): 4 µg/mL (≈ 7 µM); MIC90 (B. pseudomallei): 8 µg/mL (≈ 14 µM); MIC (B. pseudomallei): 0.5 to 16 µg/mL (≈ 0.876 to 28 µM)
C=CCC[C@H](NCCCNC(=N)N)c1ccc(-n2cc3cc(-c4cc(CCC[C@H](C)N)cc(Cl)c4F)[nH]c3nc2=O)cc1 [Compound 14] | 2 µg/mL | 0.5 µg/mL (≈ 0.823 µM) | 1 µg/mL (≈ 1.65 µM) | 1 µg/mL (≈ 1.65 µM) | 0.5 µg/mL (≈ 0.823 µM) | 0.5 µg/mL (≈ 0.823 µM) | 0.5 µg/mL (≈ 0.823 µM) | 1 µg/mL (≈ 1.65 µM) | 0.5 µg/mL (≈ 0.823 µM) | 0.5 µg/mL (≈ 0.823 µM) | 0.5 µg/mL (≈ 0.823 µM) | 4 µg/mL (≈ 6.59 µM) | 2 µg/mL (≈ 3.29 µM) | 4 µg/mL (≈ 6.59 µM) | 1 µg/mL | 0.25 µg/mL (≈ 0.412 µM) | 0.25 µg/mL (≈ 0.412 µM) | 0.03 to 0.5 µg/mL (≈ 0.0494 to 0.823 µM) | 0.12 µg/mL (≈ 0.198 µM) | 0.5 µg/mL (≈ 0.823 µM) | MIC (Y. pestis): 0.03 to 0.5 µg/mL (≈ 0.0494 to 0.823 µM); MIC50 (B. mallei): ≤ 0.03 µg/mL; MIC90 (B. mallei): 0.25 µg/mL (≈ 0.412 µM); MIC (B. mallei): 0.03 to 0.5 µg/mL (≈ 0.0494 to 0.823 µM); MIC50 (F. tularensis): 0.06 µg/mL (≈ 0.0988 µM); MIC90 (F. tularensis): 0.25 µg/mL (≈ 0.412 µM); MIC (F. tularensis): 0.03 to 2 µg/mL (≈ 0.0494 to 3.29 µM); MIC50 (B. pseudomallei): 2 µg/mL (≈ 3.29 µM); MIC90 (B. pseudomallei): 4 µg/mL (≈ 6.59 µM); MIC (B. pseudomallei): 0.25 to 8 µg/mL (≈ 0.412 to 13.2 µM)
